From the METLIN SMRT retention time set (Domingo-Almenara et al. 2019)

Assay: gradient 5% acetonitrile 3 min, to 50% in 2 min, to 85% in 15 min, held 3 min, 100 µL/min
Details: column: Zorbax Extend-C18 2.1 x 50 mm; eluents: water / acetonitrile, 0.1% formic acid
How it was run: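 Pure standards were run in mixtures of ~100 molecules by HPLC coupled to a quadrupole time-of-flight mass spectrometer. The column was a Zorbax Extend-C18 (2.1 × 50 mm, 1.8 μm) at 100 μL/min, with water and acetonitrile each containing 0.1% formic acid, in positive and negative ionization mode. Dead and dwell volumes were 40 μL and 900 μL. Retention time was taken from computationally picked adduct peaks, each manually inspected, with data collected over 3 months.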

CCn1cnc(S(=O)(=O)N2CCC(C(=O)Nc3ccc(OC)cc3)CC2)c1
RP-LC retention time: 666 s

COc1ccc(N2CCN(C(=O)c3ccc4c(c3)N(C)C(=O)C3CCCCN43)CC2)cc1 (stereo not drawn)
RP-LC retention time: 832 s

CC(=O)N1CCN(C(=O)c2cccn2CC(=O)N2CCc3ccccc32)CC1
RP-LC retention time: 627 s

O=C(Nc1ccc2c(c1)OCO2)c1c(O)c2ccccc2n(-c2ccccc2)c1=O
RP-LC retention time: 858 s

CCn1cc(-c2ccc(OC)cc2)cc1C(=O)N1CCC(C)CC1
RP-LC retention time: 1110 s

CCN1C(=O)COc2ccc(-c3noc(C4CC(=O)N(c5ccccc5)C4)n3)cc21 (stereo not drawn)
RP-LC retention time: 879 s

Cc1nc(N2CCOCC2)c2c(C(=O)Nc3cc(Cl)ccc3C)c(C)oc2n1
RP-LC retention time: 869 s

COc1ccc(-c2cc(C(=O)N3CCN(S(=O)(=O)c4ccc(C)cc4C)CC3)[nH]n2)cc1
RP-LC retention time: 924 s

COc1ccccc1NC(=O)Cn1c(C)nc2onc(C)c2c1=O
RP-LC retention time: 772 s

Cc1nnc2c(=O)n(CC(=O)NCc3ccccc3Cl)c3cccnc3n12
RP-LC retention time: 693 s

CCCCCn1c(=O)c2ccccc2n(Cc2nc(-c3cc(OC)cc(OC)c3)no2)c1=O
RP-LC retention time: 1270 s

O=C(Nc1ccc2c(c1)OCO2)c1nnc(C2CCCN2C(=O)NCc2ccc(F)cc2)s1 (stereo not drawn)
RP-LC retention time: 854 s

O=C(c1ccco1)N1CCC(O)(c2ccccc2)[C@H](N2CCCC2)C1 (stereo partly drawn)
RP-LC retention time: 555 s

CN1CC(=O)NC(c2ccccc2F)C1=O (stereo not drawn)
RP-LC retention time: 513 s

O=C(NCc1csc(-c2ccccc2)n1)[C@H]1CCCN1C(=O)COc1ccc(Cl)cc1
RP-LC retention time: 861 s

O=C(NCCN1CCOCC1)c1sc2cc(Cl)ccc2c1Cl
RP-LC retention time: 590 s

CCOc1ccc(CNC(=O)c2ccc3c(c2)NC(=O)C2CCCCN32)cc1OC (stereo not drawn)
RP-LC retention time: 747 s

O=C(NC1CCCCCCC1)C1CCCN(C(=O)c2cc(-c3cccnc3)n[nH]2)C1 (stereo not drawn)
RP-LC retention time: 631 s

O=C(Cn1cnc2nc(N3CCC(C(=O)NC4CC4)CC3)sc2c1=O)Nc1ccc2c(c1)CCC2
RP-LC retention time: 670 s

CCOC(=O)C1CCN(C(=O)c2ccc(-c3nc4ccccc4n(CC(C)C)c3=O)cc2)CC1
RP-LC retention time: 1060 s

CN(C)CCNC(=O)c1ccc2ccnc(N3CCN(C(=O)c4ccco4)CC3)c2c1
RP-LC retention time: 557 s

CCOc1ccc(NC(=O)Nc2nccn(-c3ccc(C(C)C)cc3)c2=O)cc1
RP-LC retention time: 1160 s

COCCCNC(=O)C1c2cc(OC)c(OC)cc2C(=O)N(C)C1c1ccc(OC)cc1 (stereo not drawn)
RP-LC retention time: 685 s

CCc1noc(-c2cc(=O)n(CC(=O)NCc3ccccc3OC)c3ccccc23)n1
RP-LC retention time: 900 s

O=S(=O)(Nc1ccc(Cn2cncn2)cc1)c1ccccc1F
RP-LC retention time: 688 s

Cc1cc(NC(=O)c2cn(-c3ccc(C#N)cc3)cn2)ccc1Br
RP-LC retention time: 1020 s

CCOC(=O)C(C)NC(=O)N1CCCN(C2=NS(=O)(=O)C(c3ccccc3)=C2C)CC1 (stereo not drawn)
RP-LC retention time: 761 s

CCS(=O)(=O)c1ccc2c(c1)N(Cc1nc(-c3cccc(OC)c3)no1)C(=O)CO2
RP-LC retention time: 883 s

Cc1cccc2nnc(N3CCCC(C(=O)N4CCN(c5ccccc5)CC4)C3)n12 (stereo not drawn)
RP-LC retention time: 614 s

CC(C)n1c(C2CCN(C(=O)C3CCCO3)CC2)nn(C)c1=O (stereo not drawn)
RP-LC retention time: 592 s

O=C(NC1CCc2ccccc21)C1CCN(C(=O)c2ncn3c2COC(c2ccc(F)cc2)C3)CC1 (stereo not drawn)
RP-LC retention time: 792 s

Cc1nc(C(=O)N2CCCCCC2c2nnc(C)o2)co1 (stereo not drawn)
RP-LC retention time: 649 s

COc1ccc(-n2ccnc(NC(=O)Nc3cccc(F)c3)c2=O)cc1OC
RP-LC retention time: 882 s

Cc1ccc(-c2nc(-c3ccc4nnn(C)c4c3)no2)cc1C
RP-LC retention time: 1170 s

Cc1ccc(-c2ncc(C(=O)N(C)C)c(-c3ccncc3)n2)cc1
RP-LC retention time: 754 s

O=c1c2sccc2n(Cc2nc(-c3ccc(F)c(Cl)c3)no2)c(=O)n1-c1cccc(F)c1
RP-LC retention time: 1070 s

CCN1CCCC1CNC(=O)c1nnc(-c2ccc(S(=O)(=O)N3CCCCC3)cc2)o1 (stereo not drawn)
RP-LC retention time: 645 s

CC1CCN(C(=O)c2cc3c(s2)CCC(C(=O)NCc2cccnc2)C3)CC1 (stereo not drawn)
RP-LC retention time: 639 s

CC1=C(C(=O)Nc2ccccc2C)C(c2ccc(Cl)cc2Cl)NC(=O)N1 (stereo not drawn)
RP-LC retention time: 704 s

CS(=O)(=O)N1CCC(OC2CCN(C(=O)NCc3cccc(F)c3)CC2)CC1
RP-LC retention time: 730 s

COc1ccc(-c2nnc(-c3ccccc3Cl)o2)cc1S(=O)(=O)N1CCCCC1
RP-LC retention time: 1060 s

O=C(c1cccc(Br)c1)N1CCN(C(=O)N2CCOCC2)CC1
RP-LC retention time: 631 s

CCS(=O)(=O)N1CC(=O)N(c2ccc(F)cc2C)C(C)(C(=O)NC2CCCCC2)C1 (stereo not drawn)
RP-LC retention time: 919 s
